We go through twelve molecules from PubChem BioAssay (NCI).

Several values for one entry are separate records, joined by “and”; a condition that tells them apart may be missing. Equal entries are not always repeated.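 Cells were grown in 96-well plates and exposed to each compound for 48 hours at five concentrations; endpoints were interpolated linearly between bracketing concentrations, or set to the highest concentration if not reached. TGI denotes the concentration required for complete inhibition of growth.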 Bounds are passed on as bounds.

Test systems include SNB-75 CNS; KM12 colon; NCI-H23 lung; HOP-92 NSCLC; NCI-H522 lung; MDA-MB-435; SF-268 CNS; HCT-116 colon; U251 CNS; HT29 colon.
What all share (test): NCI-60 cell line screen, 48 h

As to `Cc1ccc(C(=O)NC2C(=O)NC(C(C)C)C(=O)N3CCCC3C(=O)N(C)CC(=O)N(C)C(C(C)C)C(=O)OC2C)c2c1Oc1c(c(C(=O)NC3C(=O)NC(C(C)C)C(=O)N4CCCC4C(=O)N(C)CC(=O)N(C)C(C(C)C)C(=O)OC3C)c3nc(-c4ccccc4)c(=O)oc3c1C)N2` (stereo not drawn), the TGI was 0.0132 µM in the experiment with SNB-75 CNS; 0.00317 µM in the experiment with KM12 colon; 0.0919 µM with NCI-H23 lung; 0.156 µM and 0.0741 µM with HOP-92 NSCLC; 0.0342 µM in the experiment with NCI-H522 lung; 0.0193 µM with MDA-MB-435.

`CCCCCCC(=O)OC[n+]1ccc(-c2c(COC(=O)NC(C)C)c(COC(=O)NC(C)C)c3n2CCC3)cc1`: the TGI in the experiment on SNB-75 CNS, in the experiment on KM12 colon, in the experiment on SF-268 CNS, with NCI-H23 lung, in the experiment on HCT-116 colon and in the experiment on HOP-92 NSCLC was greater than 100 µM throughout. Also, the TGI in the experiment with NCI-H522 lung, in the experiment on MDA-MB-435, in the experiment with U251 CNS and in the experiment on HT29 colon was greater than 100 µM in each case.

For `[O-]c1c2c(nn1-c1ccc(F)cc1)c1ccccc1c[n+]2Cc1ccccc1`, the TGI with SNB-75 CNS is 60.5 µM; in the experiment with KM12 colon, 25 µM; with SF-268 CNS, 40.7 µM; in the experiment on NCI-H23 lung, 55.8 µM; in the experiment with HCT-116 colon, 32.9 µM; in the experiment with HOP-92 NSCLC, 57.9 µM. Also, the TGI with NCI-H522 lung came out at 21.3 µM; in the experiment with U251 CNS it was 33.4 µM; in the experiment with HT29 colon it was 27.1 µM.

Regarding `C/C=C\C1OC1(C)c1cc(=O)c2c(C)cc3c(c2o1)C(=O)c1c(O)c(C2CC(C)(N(C)C)C(OC(C)=O)C(C)O2)cc(C2CC(N(C)C)C(O)C(C)O2)c1C3=O` (stereo not drawn), the TGI in the experiment with SNB-75 CNS came out at 0.0067 µM; in the experiment with KM12 colon it was 0.0109 µM; in the experiment on SF-268 CNS, 0.0721 µM; with NCI-H23 lung, 0.00871 µM; in the experiment on HCT-116 colon it was 0.0429 µM; with HOP-92 NSCLC, 0.0251 µM. In addition, the TGI in the experiment with NCI-H522 lung was found to be 0.00964 µM; in the experiment with MDA-MB-435, 0.0103 µM; in the experiment on U251 CNS, 0.0394 µM; in the experiment on HT29 colon, 1.93 µM.

For `Nc1c(S(=O)(=O)O)cc(S(=O)(=O)O)c2ccc(N=Nc3ccccc3)c(O)c12`, the TGI in the experiment on SNB-75 CNS, in the experiment with KM12 colon, in the experiment on SF-268 CNS, in the experiment with NCI-H23 lung, in the experiment on HCT-116 colon and in the experiment with HOP-92 NSCLC was greater than 100 µM throughout. The TGI with NCI-H522 lung, in the experiment on MDA-MB-435, in the experiment on U251 CNS and in the experiment with HT29 colon was greater than 100 µM throughout.

On to `CCOC(=O)c1sc2nc(SC)nc3c2c1NC(=O)CN3c1ccc(F)cc1`, for which the TGI with KM12 colon is greater than 100 µM; in the experiment with SF-268 CNS, 36.2 µM; in the experiment with NCI-H23 lung it was greater than 100 µM; in the experiment with HCT-116 colon it was greater than 100 µM; with HOP-92 NSCLC, greater than 100 µM; with NCI-H522 lung it was greater than 100 µM. Further, the TGI in the experiment on MDA-MB-435, with U251 CNS and in the experiment on HT29 colon was greater than 100 µM throughout.

Regarding `CCOC(=O)C(C(=O)OCC)c1cc(-c2cc3ccccc3o2)oc(=O)c1C#N`, the TGI was 90.6 µM with SNB-75 CNS; greater than 100 µM with KM12 colon; greater than 100 µM with SF-268 CNS; 36.7 µM with NCI-H23 lung; 44.9 µM with HCT-116 colon; 20.6 µM in the experiment with HOP-92 NSCLC. For the same molecule, the results for the TGI in the experiment on U251 CNS and in the experiment with HT29 colon were 30.6 µM and 35 µM, respectively.

`COc1cc2cc(C(=O)N3CC(CCl)c4ccc(NO)cc43)[nH]c2c(OC)c1OC` (stereo not drawn): the TGI in the experiment with SNB-75 CNS was 0.47 µM; in the experiment on KM12 colon, 16.3 µM; in the experiment with SF-268 CNS, 0.749 µM; in the experiment with NCI-H23 lung, 0.166 µM; in the experiment with HCT-116 colon, greater than 100 µM; in the experiment with NCI-H522 lung, 0.354 µM. Besides, the TGI in the experiment with MDA-MB-435 was determined as 0.481 µM; in the experiment on HT29 colon it was 11.8 µM.

Regarding `O=P1(Oc2ccc(Cl)cc2Cl)Oc2cc3ccccc3cc2O1`, the TGI in the experiment with SNB-75 CNS, in the experiment on KM12 colon, with SF-268 CNS, in the experiment on NCI-H23 lung, in the experiment with HCT-116 colon and in the experiment on HOP-92 NSCLC was greater than 100 µM each time. Further, the values for the TGI in the experiment with NCI-H522 lung, with U251 CNS and in the experiment on HT29 colon were 82.6 µM, greater than 100 µM and greater than 100 µM, respectively.

Regarding `CC(=O)NC1C(OCc2ccccc2)OC(CO)C(O)C1OCC(=O)NC(C(=O)NC(CCC(=O)NCCCCCC(=O)Nc1ccc2c(c1)CN1C(=O)c3ccccc3C1=N2)C(N)=O)C(C)C` (stereo not drawn), the TGI with SNB-75 CNS was 41.1 µM; in the experiment with KM12 colon, 48.7 µM; in the experiment with SF-268 CNS, 41.8 µM; with NCI-H23 lung, greater than 100 µM; in the experiment with HCT-116 colon, greater than 100 µM; in the experiment with HOP-92 NSCLC, greater than 100 µM. Also, the TGI was greater than 100 µM in the experiment with MDA-MB-435, 39.2 µM in the experiment with U251 CNS and greater than 100 µM in the experiment with HT29 colon.

`O=C(O)C1=C(CO)Oc2cc3c(cc2C1c1ccc2c(c1)OCO2)OCO3` (stereo not drawn): the TGI in the experiment with SNB-75 CNS, in the experiment on NCI-H23 lung, in the experiment on HCT-116 colon, in the experiment on HOP-92 NSCLC, in the experiment with U251 CNS and in the experiment with HT29 colon was greater than 100 µM each time.

With `COc1ccc2c(O)c1-c1c(OC)ccc(c1O)SSc1ccc(OC)c(c1O)-c1c(OC)ccc(c1O)SS2`, the TGI in the experiment on SNB-75 CNS is greater than 100 µM; in the experiment with KM12 colon it was greater than 100 µM; with SF-268 CNS, greater than 100 µM; with HCT-116 colon, greater than 100 µM; with HOP-92 NSCLC, 90.1 µM; in the experiment with NCI-H522 lung, 15.5 µM. Besides, the TGI was greater than 100 µM in the experiment with MDA-MB-435, 69 µM with U251 CNS and greater than 100 µM with HT29 colon.
